Reference: patent publication US11198869B2, “Angelman syndrome antisense treatment” (The Texas A&M University System, priority 2017, dated 2021)
Oligonucleotides are written 5' to 3', each unit as a sugar letter and its base; * is a phosphorothioate linkage, no mark a phosphodiester; rarer units and linkages stand in square brackets, end groups in braces. Plain capitals give the bases only. l = locked nucleic acid (LNA); [5mC] = 5-methylcytosine; d = 2'-deoxy (DNA)

Legend:
Format in all cases: cell-based, human
[1] = tested on: UBE3A-AS; assay: UBE3A-AS steady state RNA (TaqMan qRT-PCR) in GABAergic iPSC-derived neurons; conditions: for Cluster (hierarchical clustering of fitted dose response curves): candidate ASOs, Cluster 1 representing the 9 most potent ASOs; for Difference, UBE3A-AS RNA level: ASOs 10 μM
Experimental: (§1) Human-specific ASOs were then designed to target this region, which included four ASOs targeting non-polymorphic regions in human and regions conserved (100%) with macaque (Rhesus and Cynomolgus) (Table 7 and FIG. 3A). Human induced pluripotent stem cell (iPSC) neural precursor cells were differentiated into GABAergic neurons for 14 DIV and then treated with a control ASO [ASO-C (10 μM, n=3)], Topotecan [Topo (1 μM, n=2)], and six ASOs targeting UBE3A-AS [ASO-1, ASO-2, ASO-3, ASO-4, ASO-5, and ASO-6 (10 μM, n=3)]. Additionally, an ASO targeting an intronic region downstream of SNORD109B was included (ASO-7). Six days post-treatment (20 DIV), RNA was isolated from the neurons and the steady state RNA levels of UBE3A-AS and UBE3A were estimated relative to the control treatment (FIG. 3B).
The potency of ASO-4 was further examined given its effect on UBE3A-AS RNA levels. GABAergic iPSC-derived neurons were treated at 14 DIV with a 10-point ½ log dose response curve of ASO-4 and Topotecan, as a positive control and for comparisons between treatment [1 nM, 3 nM, 10 nM, 30 nM, 100 nM, 300 nM, 1 μM, 3 μM, 10 μM, and 30 μM (ASO-4, n=6; Topotecan, n=2)]. At 20 DIV, the steady state RNA levels of UBE3A-AS were measured and dose response curves fitted to estimate the IC50 and Emax (i.e., maximum UBE3A-AS inhibition) (Table 9 and FIG. 4A). […]
Additional ASOs targeting the 5′-end of UBE3A-AS were then designed to optimize the target sequences of ASO-4 (ASO-4.1, ASO-4.2, ASO-4.3, and ASO-4.4) as well as two other target regions, ASO-3 (ASO-3.1 and ASO-3.2) and ASO-6 (ASO-6.1) (Table 11). Additionally, ASO-4 was manufactured at two different vendors for comparative purposes (ASO-4.S, Sigma; ASO-4.I, Integrated DNA Technologies). Human iPSC-derived neurons (GABAergic) were treated at 14 DIV with a […] ½ log dose curve of ASO-3.1, ASO-3.2, ASO-4.S, ASO-4.I, ASO-4.1, ASO-4.2, ASO-4.3, ASO-4.4, and ASO-6.1 [30 nM, 100 nM, 300 nM, 1 μM (n=6)]. At 20 DIV, the IC50 and Emax of each ASO was estimated as described above (FIG. 5A-B and Table 12). […] No significant difference was observed between ASO-4.S and ASO-4.I.
(§2) The potency of ASO-4 and ASO-6.1 was further examined in iPSC-derived neurons at a later time point in differentiation. GABAergic iPSC-derived neurons were treated at 29 DIV with a 10-point ½ log dose response curve of ASO-4 and ASO-6.1 [1 nM, 3 nM, 10 nM, 30 nM, 100 nM, 300 nM, 1 μM, 3 μM, 10 μM, and 30 μM (n=3)]. At 35 DIV, the IC50 and Emax of each ASO was estimated as described above (FIG. 5C-D and Table 14). The dose response curves of ASO-4 and ASO-6.1 were not similar (Parallelism test: F(3,172)=22.7, p<0.0001).
(§3) GABAergic and glutamatergic induced pluripotent stem cell (iPSC) derived neural precursor cells (NRC-100-010-001 and GNC-301-030-001, Cellular Dynamics International, Madison Wis.) were differentiated into neurons according to the manufactures protocol. Briefly, neural precursor cells were thawed and resuspended in chemically defined medium and added to sterile-culture plates coated with poly-D-lysine and laminin. The medium was replaced 24 hr after plating and then one-half of the medium was replaced every 3-5 days afterwards.
(§4) For cultured iPSC-derived neurons, RNA isolation and cDNA synthesis were performed using the Cell-to-CT kit (Thermo Fisher Scientific) in a lysate volume of 55 μl.
The steady state RNA levels of target transcripts were measured using TaqMan quantitative reverse-transcription PCR (qRT-PCR) assays. Total reaction volume was 10 uL, including 2 μl of cDNA, 1× Gene Expression Master mix (4369016, Thermo Fisher Scientific, Waltham, Mass.), and 1× TaqMan primer assay (Thermo Fisher Scientific). Cycling conditions were 2 minutes at 50° C., 10 minutes at 95° C., and 40 cycles of 15 seconds at 95° C. and 1 minute at 60° C., with readings taken at the 60° C. step of every cycle. […]

[2] = tested on: UBE3A-AS; assay: as above
[3] = tested on: UBE3A; assay: UBE3A steady state RNA (qRT-PCR) in GABAergic iPSC-derived neurons; conditions: ASOs 10 μM
Experimental: as §1
The effects of ASO-4 and Topotecan were then examined on the SNORD116, IPW, SNORD115, and SNORD109A RNAs, which are located upstream of the ASO-4 target region (see FIG. 1A).
The potency of ASO-4 was further examined in iPSC-derived neurons at a later time point in differentiation. GABAergic iPSC-derived neurons were treated at 59 DIV with a control ASO [ASO-C, 10 μM (n=3)] and ASO-4 [1 uM, 5 μM, and 10 μM (n=3)], and the steady state RNA levels of UBE3A-AS and UBE3A were measured as described above (FIG. 4G). Unlike neurons treated with ASO-4 at an earlier time point, the RNA levels of UBE3A and UBE3A-AS were highly inversely correlated (FIGS. 4H and 4I). For example, the effect of ASO-4 (10 μM) on UBE3A-AS RNA levels was similar between neurons treated at 14 and 59 DIV [20 DIV: UBE3A-AS: ↓87% (95% confidence intervals (CI): 80 to 95%); 65 DIV: ↓81% (95% CI: 74 to 88%)], whereas the effect of ASO-4 on UBE3A RNA levels was substantially larger in neurons treated at 59 DIV [20 DIV: ↑30% (95% CI: 16 to 44%); 65 DIV: ↑86% (95% CI: 59% to 113%)].
as §2, §3, §4
The steady state RNA levels of target transcripts were measured using TaqMan quantitative reverse-transcription PCR (qRT-PCR) assays. Total reaction volume was 10 uL, including 2 μl of cDNA, 1× Gene Expression Master mix (4369016, Thermo Fisher Scientific, Waltham, Mass.), and 1× TaqMan primer assay (Thermo Fisher Scientific). Cycling conditions were 2 minutes at 50° C., 10 minutes at 95° C., and 40 cycles of 15 seconds at 95° C. and 1 minute at 60° C., with readings taken at the 60° C. step of every cycle. Reactions were run on a BIO-RAD T1000 CFX96 thermocycler (Bio-Rad Laboratories, Hercules Calif.), with internal control (PPIA, Hs99999904_m1, Thermo Fisher Scientific) and target [UBE3A-AS, Hs01372957_m1; SNORD116-11, Hs04275268_gH; SNORD115, Hs04275288_gH; IPW, Hs03455409_s1; SNORD109A/B, AP47WVR (Thermo Fisher Scientific); UBE3A: forward […] (SEQ ID NO:500); reverse: […]

[4] = candidate ASOs, 18 DIV to 24 DIV
[5] = candidate ASOs, 18 DIV to 24 DIV, 4-parameter logistic (Hill)
[6] = candidate ASOs, treated 18 DIV, RNA 24 DIV, 10-point dose curve, n=2, full model, 4-parameter logistic (Hill)
[7] = Topo 1 μM, 14 DIV to 20 DIV, ASO-1 minus labelled treatment
[8] = Topo 1 μM, 14 DIV to 20 DIV, ASO-R minus labelled treatment
[9] = Topo 1 μM, 14 DIV to 20 DIV, Topo minus labelled treatment
[10] = Topo 1 μM, treated 14 DIV, RNA 20 DIV, normalized to ASO-C, ASO-C minus labelled treatment
[11] = 14 DIV to 20 DIV, ASO-5 minus labelled treatment
[12] = Topo 1 μM, 14 DIV to 20 DIV, labelled treatment minus ASO-3
[13] = Topo 1 μM, 14 DIV to 20 DIV, labelled treatment minus ASO-R
[14] = Topo 1 μM, treated 14 DIV, RNA 20 DIV, normalized to ASO-C, labelled treatment minus ASO-C
[15] = Topo 1 μM, 14 DIV to 20 DIV, labelled treatment minus ASO-6

Substance: A^L*G^L*A^L-a*t*g*g*c*a*c*a*t*c*t-5mC^L*T^L*T^L*G^L (lA*lG*lAdA*dT*dG*dG*dC*dA*dC*dA*dT*dC*dTl[5mC]*lT*lT*lG) [ASO-4.4.PO-1.L]
- Cluster (hierarchical clustering of fitted dose response curves) [1]: 1
- IC50 ([2]; Cluster 1 ASOs, 18 DIV to 24 DIV, parallel model, 4 Parameter logistic (Hill)): 322 nM
- IC50 Ratio relative to ASO-4.4.PS.L ([2]; Cluster 1 ASOs, equivalence, two one-sided tests): 0.88
- Relative Potency ([2]; Cluster 1 ASOs, parallel model, relative to ASO-4.4.PS.L = 1): 0.2
- Limit Exceeded (equivalence of IC50 relative to ASO-4.4.PS.L) ([2]; Cluster 1 ASOs, two one-sided tests): Lower
- 30 μM (Mean), normalized UBE3A-AS RNA level relative to vehicle [2, 4]: 0.1
- Emax (normalized UBE3A-AS RNA level relative to vehicle) [2, 5]: 0.04
- IC50 [2, 6]: 226 nM

Substance: A^L*G^L-A^L*a-t*g-g*c-a*c-a*t-c*t-5mC^L*T^L*T^L*G^L (lA*lGlA*dAdT*dGdG*dCdA*dCdA*dTdC*dTl[5mC]*lT*lT*lG) [ASO-4.4.PO-2.L]
- Cluster (hierarchical clustering of fitted dose response curves) [1]: 3
- 30 μM (Mean), normalized UBE3A-AS RNA level relative to vehicle [2, 4]: 0.6
- Emax (normalized UBE3A-AS RNA level relative to vehicle) [2, 5]: −2.7

Substance: C^O*U^O*G^O*G^O*U^O*g*t*c*a*a*c*a*a*g*c*C^O*A^O*A^O*A^O*G^O [ASO-6]
- Difference, UBE3A-AS RNA level [1, 7]: 0.32
- Difference, UBE3A-AS RNA level [1, 8]: 0.81
- Difference, UBE3A-AS RNA level [1, 9]: 0.17
- Difference, UBE3A-AS RNA level [1, 10]: 0.83
- Difference, UBE3A-AS RNA level ([1]; 14 DIV to 20 DIV, ASO-3 minus labelled treatment): 0.04
- Difference, UBE3A-AS RNA level [1, 11]: 0.12
- Difference, UBE3A RNA level [3, 12]: 0.03
- Difference, UBE3A RNA level [3, 13]: 0.16
- Difference, UBE3A RNA level [3, 14]: 0.16

Substance: G^O*U^O*U^O*U^O*U^O*c*t*t*c*c*t*c*c*a*c*A^O*G^O*U^O*C^O*U^O [ASO-5]
- Difference, UBE3A-AS RNA level [1, 7]: 0.20
- Difference, UBE3A-AS RNA level [1, 8]: 0.69
- Difference, UBE3A-AS RNA level [1, 9]: 0.05
- Difference, UBE3A-AS RNA level [1, 10]: 0.71
- Difference, UBE3A RNA level [3, 12]: 0.03
- Difference, UBE3A RNA level [3, 15]: 0.00
- Difference, UBE3A RNA level [3, 13]: 0.16
- Difference, UBE3A RNA level [3, 14]: 0.16

Substance: U^O*A^O*G^O*A^O*G^O*g*t*g*a*a*g*g*c*c*a*G^O*G^O*C^O*A^O*C^O [ASO-1]
- Difference, UBE3A-AS RNA level [1, 8]: 0.49
- Difference, UBE3A-AS RNA level [1, 10]: 0.51
- Difference, UBE3A RNA level [3, 12]: 0.05
- Difference, UBE3A RNA level ([3]; Topo 1 μM, 14 DIV to 20 DIV, labelled treatment minus ASO-5): 0.02
- Difference, UBE3A RNA level [3, 15]: 0.02
- Difference, UBE3A RNA level [3, 13]: 0.18
- Difference, UBE3A RNA level [3, 14]: 0.18
- Difference, UBE3A RNA level ([3]; 14 DIV to 20 DIV, labelled treatment minus Topo (1 μM)): 0.00

Substance: U^O*A^O-G^O*A^O-A^O*t-g*g-c*a-c*a-t*c-t*C^O-U^O*U^O-G^O*G^o [ASO-4.0.PO-2.O]
- 30 μM (Mean), normalized UBE3A-AS RNA level relative to vehicle [2, 4]: 0.6
- Emax (normalized UBE3A-AS RNA level relative to vehicle) [2, 5]: −0.3
- IC50 [2, 6]: 130000 nM

Substance: U^O*G^O*U^O*C^O*A^O*g*t*t*t*c*t*c*c*c*t*G^O*A^O*A^O*C^O*A^O [ASO-3]
- Difference, UBE3A-AS RNA level [1, 7]: 0.28
- Difference, UBE3A-AS RNA level [1, 8]: 0.77
- Difference, UBE3A-AS RNA level [1, 9]: 0.13
- Difference, UBE3A-AS RNA level [1, 10]: 0.79
- Difference, UBE3A-AS RNA level [1, 11]: 0.08
- Difference, UBE3A RNA level [3, 13]: 0.13
- Difference, UBE3A RNA level [3, 14]: 0.13
